According to patent publication US20130204033A1, “ANTIPROLIFERATIVE COMPOUNDS, CONJUGATES THEREOF, METHODS THEREFOR, AND USES THEREOF” (Medarex, Inc., priority 2009, published 2013):
Where two headings read alike, the source gives them in different places.

How the values were obtained:
Assay type in all cases: cell-based, human
[1] = system: RPMI-8226; assay: ATP luminescence proliferation assay, RPMI-8226; settings: Homo sapiens, RPMI-8226, 72 h, read-out: EC50 RPMI-8226 (72 h), ATP luminescence, RPMI-8226, 72 h incubation
Experimental: (§1) This example generally describes the procedures used to assay the antiproliferative activity of compounds of this invention or their conjugates. Human tumor cell lines were obtained from the American Type Culture Collection (ATCC), P.O. Box 1549, Manassas, Va. 20108, USA, and cultured according to instruction from the ATCC. Cells were seeded at 1.0×10^3 or 1.0×10^4 cells/well in 96-well plates for 3 h for ATP assays or ^3H thymidine assays, respectively. 1:3 serial dilutions of free (unconjugated) compounds or their conjugates were added to the wells. Plates were allowed to incubate for 24 to 72 h. The ^3H thymidine plates were pulsed with 1.0 μCi of ^3H-thymidine per well for the last 24 hours of the total incubation period, harvested, and read on a Top Count Scintillation Counter (Packard Instruments, Meriden, Conn.). ATP levels in the ATP plates were measured using the […]-GLO® Luminescent Cell Viability kit following the manufacturer's manual and read on a GLOMAX® 20/20 luminometer (both from Promega, Madison, Wis., USA). The EC50 values—the concentration at which an agent inhibits or reduces cell proliferation by 50% —were determined using PRISM™ software, version 4.0 (GraphPad Software, La Jolla, Calif., USA).
(§2) Using the ^3H thymidine or the ATP luminescence assay, or both, the activities of compounds of this invention were assayed against the following cancer cell lines: HCT-15 (colorectal cancer, multi-drug resistant (MDR)); Hep3B (liver cancer); LNCaP (prostate cancer, androgen receptor positive (AR^+)); MDA-MB-231 (breast cancer, estrogen receptor, progesterone receptor, and Her2 negative (triple negative)); A2058 (melanoma); U-87 MG (glioblastoma); NCI-H460 (NSCLC); A549 (NSCLC); HPAC (pancreatic cancer, primary); PC3 (prostate cancer, AR); BT474 (breast cancer, Her2 highly positive (Her2hi)); SKOV3 (ovarian cancer, Her2hi); 786-O (renal cancer); UO-31 (renal cancer, MDR); NCI-H740 (SCLC); DMS53 (SCLC); SK-BR3 (breast cancer, Her2hi); ZR-75 (breast cancer, estrogen receptor positive); OVCAR3 (ovarian cancer); HL-60 (APL); OVCAR8/Adr (ovarian cancer, MDR); CEM-Cl (ALL); Nomo-1 (AML); RPMI-8226 (MM)); Raji (lymphoma); SW-480 (colorectal cancer, metastatic); SW-620 (colorectal cancer); and H226 (lung cancer). (Not all compounds were assayed against all cell lines.)
(§3) Table 3 provides the data for the ATP luminescence proliferation assays, with an incubation period of 48, 72, or 96 h, as noted.

[2] = system: BT474; assay: 3H thymidine proliferation assay, BT474; settings: Homo sapiens, BT-474, read-out: EC50, BT474, 3H thymidine method, 72 h incubation
Experimental: as §1, §2
(§4) Table 2 provides the data for proliferation assays using the ^3H thymidine method, with an incubation period of 72 h.

[3] = system: HL-60; assay: 3H thymidine proliferation assay, HL-60; settings: Homo sapiens, HL-60, read-out: EC50, HL-60, 3H thymidine method, 72 h incubation
Experimental: as §1, §2, §4

[4] = system: SKOV3; assay: 3H thymidine proliferation assay, SKOV3; settings: Homo sapiens, SK-OV-3, read-out: EC50, SKOV3, 3H thymidine method, 72 h incubation
Experimental: as §1, §2, §4

[5] = system: SKOV3; assay: ATP luminescence proliferation assay, SKOV3; settings: Homo sapiens
Experimental: as §1, §2, §3

[6] = system: BT474; assay: ATP luminescence proliferation assay, BT474; settings: Homo sapiens, BT-474, 48 h, read-out: EC50 BT474 (48 h), ATP luminescence, BT474, 48 h incubation
Experimental: as §1, §2, §3

[7] = system: PC3; assay: 3H thymidine proliferation assay, PC3; settings: Homo sapiens, PC-3, read-out: EC50, PC3, 3H thymidine method, 72 h incubation
Experimental: as §1, §2, §4

[8] = system: Nomo-1; assay: ATP luminescence proliferation assay, Nomo-1; settings: Homo sapiens
Experimental: as §1, §2, §3

[9] = system: DMS53; assay: 3H thymidine proliferation assay, DMS53; settings: Homo sapiens, DMS-53, read-out: EC50, DMS53, 3H thymidine method, 72 h incubation
Experimental: as §1, §2, §4

[10] = system: RPMI-8226; assay: 3H thymidine proliferation assay, RPMI-8226; settings: Homo sapiens, RPMI-8226, read-out: EC50, RPMI-8226, 3H thymidine method, 72 h incubation
Experimental: as §1, §2, §4

[11] = system: U-87 MG; assay: 3H thymidine proliferation assay, U-87 MG; settings: Homo sapiens, U-87 MG, read-out: EC50, U-87 MG, 3H thymidine method, 72 h incubation
Experimental: as §1, §2, §4

[12] = system: 786-O; assay: ATP luminescence proliferation assay, 786-O; settings: Homo sapiens, 786-0, 72 h, read-out: EC50 786-O (72 h), ATP luminescence, 786-O, 72 h incubation
Experimental: as §1, §2
FIGS. 12a and 12b show illustrative plots for ATP luminescence proliferation assays for a second set of compounds of this invention, against HL-60 and 786-O cells, respectively, with an incubation period of 72 h. FIGS. 12c and 12d show the plots for ^3H thymidine proliferation assays for the same set of compounds, again against HL-60 and 786-O cells, respectively, with a 72 h incubation period. In each instance, doxorubicin was used as a comparative compound.
as §3

[13] = system: SW-620; assay: ATP luminescence proliferation assay, SW-620; settings: Homo sapiens, SW-620, 96 h, read-out: EC50 SW-620 (96 h), ATP luminescence, SW-620, 96 h incubation
Experimental: as §1, §2, §3

[14] = system: A549; assay: 3H thymidine proliferation assay, A549; settings: Homo sapiens, A549, read-out: EC50, A549, 3H thymidine method, 72 h incubation
Experimental: as §1, §2, §4

[15] = system: HPAC; assay: ATP luminescence proliferation assay, HPAC; settings: Homo sapiens, 72 h, read-out: EC50 HPAC (72 h), ATP luminescence, HPAC, 72 h incubation
Experimental: as §1, §2, §3

[16] = system: 786-O; assay: 3H thymidine proliferation assay, 786-O; settings: Homo sapiens, 786-0, read-out: EC50, 786-O, 3H thymidine method, 72 h incubation
Experimental: as §1, §2, §4

[17] = system: ZR-75; assay: 3H thymidine proliferation assay, ZR-75; settings: Homo sapiens, ZR75, read-out: EC50, ZR-75, 3H thymidine method, 72 h incubation
Experimental: as §1, §2, §4

[18] = system: UO-31; assay: ATP luminescence proliferation assay, UO-31; settings: Homo sapiens, UO-31, 48 h, read-out: EC50 UO-31 (48 h), ATP luminescence, UO-31, 48 h incubation
Experimental: as §1, §2, §3

[19] = SK-OV-3, 48 h, read-out: EC50 SKOV3 (48 h), ATP luminescence, SKOV3, 48 h incubation
[20] = NOMO-1, 72 h, read-out: EC50 Nomo-1 (72 h), ATP luminescence, Nomo-1, 72 h incubation

SMILES | EC50 [1] | EC50 [2] | EC50 [3] | EC50 [4] | EC50 [5, 19] | EC50 [6] | EC50 [7] | EC50 [8, 20] | EC50 [9] | EC50 [10] | EC50 [11] | EC50 [12] | EC50 [13] | EC50 [14] | EC50 [15] | EC50 [16] | EC50 ([5]; SK-OV-3, 72 h, read-out: EC50 SKOV3 (72 h), ATP luminescence, SKOV3, 72 h incubation) | EC50 [17] | EC50 ([8]; NOMO-1, 48 h, read-out: EC50 Nomo-1 (48 h), ATP luminescence, Nomo-1, 48 h incubation) | EC50 [18]
CC[C@H](C)[C@H](NC(=O)[C@H]1CCCCN1C)C(=O)N(C)[C@H](C[C@@H](OC)c1nc(C(=O)NC(Cc2ccccc2)C[C@H](C)C(=O)O)cs1)C(C)C (stereo partly drawn) [Compound 15] | 2.6 nM | 7.1 nM | 0.6 nM | 2.6 nM | 4.2 nM | 3.5 nM | 1.7 nM | 2.7 nM | 37 nM | 3.3 nM | 0.42 nM | 9.4 nM | 3.7 nM | 2.1 nM |  |  |  |  |  | 
CC[C@H](C)[C@H](NC(=O)[C@H]1CCCCN1C)C(=O)N(COC(=O)CC(C)C)[C@H](C[C@@H](OC(C)=O)c1nc(C(=O)N[C@@H](Cc2ccc(N)cc2)CC(C)C(=O)O)cs1)C(C)C (stereo partly drawn) [Compound 54] | 1.6 nM | 8.8 nM | 0.53 nM | 0.34 nM |  | 4.8 nM | 0.82 nM |  | 2 nM | 0.36 nM | 0.11 nM | 2.6 nM | 1.1 nM | 0.24 nM | 0.96 nM | 6.9 nM | 1.3 nM | 2.2 nM | 3.1 nM | 
CCCC(NC(=O)c1csc([C@@H](C[C@H](C(C)C)N(C)C(=O)[C@@H](NC(=O)[C@H]2CCCCN2C)[C@@H](C)CC)OC)n1)C(=O)OC (stereo partly drawn) [Compound 17] | 15 nM | > 100 nM | 17 nM | 91 nM | 58 nM | 23 nM | 82 nM | 3.9 nM | > 100 nM | 47 nM | 12 nM | 73 nM | 65 nM | > 100 nM |  | 32 nM |  | > 100 nM |  | > 100 nM
